Experimental findings from US20260158017A1, “KIF18A INHIBITOR” (WIGEN BIOMEDICINE TECHNOLOGY (SHANGHAI) CO., LTD., priority 2021, published 2026) are described below.

For this assay, the target named is T1, Recombinant human KIF18A (1-467His-tagged) protein (Homo sapiens, UniProt Q8NI77).
T1 construct: Recombinant human KIF18A (1-467His-tagged) protein; His; made in house
T1 sequence (Q8NI77 1-467): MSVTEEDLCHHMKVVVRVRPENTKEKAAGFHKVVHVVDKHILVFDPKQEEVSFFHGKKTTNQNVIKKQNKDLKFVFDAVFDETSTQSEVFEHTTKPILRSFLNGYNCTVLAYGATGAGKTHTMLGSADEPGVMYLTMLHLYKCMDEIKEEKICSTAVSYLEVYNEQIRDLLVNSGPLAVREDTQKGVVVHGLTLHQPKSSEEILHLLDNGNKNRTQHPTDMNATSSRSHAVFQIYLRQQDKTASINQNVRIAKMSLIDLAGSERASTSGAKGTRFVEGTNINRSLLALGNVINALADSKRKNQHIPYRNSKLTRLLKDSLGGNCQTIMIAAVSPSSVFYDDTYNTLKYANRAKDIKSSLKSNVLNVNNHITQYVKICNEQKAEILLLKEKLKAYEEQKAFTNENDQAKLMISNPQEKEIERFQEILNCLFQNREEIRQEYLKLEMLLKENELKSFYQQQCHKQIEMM
T1 sequence (P02550 whole entry partner): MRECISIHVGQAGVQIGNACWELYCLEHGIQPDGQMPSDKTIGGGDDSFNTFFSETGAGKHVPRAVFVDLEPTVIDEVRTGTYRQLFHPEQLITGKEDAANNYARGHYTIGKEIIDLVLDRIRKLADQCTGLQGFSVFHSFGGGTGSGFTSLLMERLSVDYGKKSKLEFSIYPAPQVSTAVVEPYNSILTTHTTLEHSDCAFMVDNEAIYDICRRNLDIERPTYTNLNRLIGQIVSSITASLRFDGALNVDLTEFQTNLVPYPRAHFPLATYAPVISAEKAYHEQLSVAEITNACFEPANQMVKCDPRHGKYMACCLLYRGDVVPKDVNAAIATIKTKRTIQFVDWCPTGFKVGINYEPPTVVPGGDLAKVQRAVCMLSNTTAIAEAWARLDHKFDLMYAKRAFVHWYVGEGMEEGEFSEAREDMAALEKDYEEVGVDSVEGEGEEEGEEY
T1 sequence (P02554 whole entry partner): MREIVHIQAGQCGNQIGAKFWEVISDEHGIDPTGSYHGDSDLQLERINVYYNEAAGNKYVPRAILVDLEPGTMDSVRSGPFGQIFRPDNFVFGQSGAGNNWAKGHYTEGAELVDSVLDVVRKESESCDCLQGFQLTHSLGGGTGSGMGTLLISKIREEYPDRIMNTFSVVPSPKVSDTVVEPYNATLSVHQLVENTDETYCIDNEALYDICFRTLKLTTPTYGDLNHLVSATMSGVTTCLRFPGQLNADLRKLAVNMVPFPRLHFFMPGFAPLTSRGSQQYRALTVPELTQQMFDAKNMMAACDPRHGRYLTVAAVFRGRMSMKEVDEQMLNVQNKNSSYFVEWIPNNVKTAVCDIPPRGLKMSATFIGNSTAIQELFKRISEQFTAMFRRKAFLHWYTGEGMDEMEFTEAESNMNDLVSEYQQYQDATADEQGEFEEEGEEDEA
In words: KIF18A enzyme assay (microtubule-stimulated ATPase activity, ADP-Glo). In kind it is biochemical. The following applies: 30 nM KIF18A, 75 μM ATP, 30 μg/mL pig microtubules; read-out: Inhibitory activity against KIF18A IC50. Summed up: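 Buffer 15 mM Tris pH 7.5, 10 mM MgCl2, 0.01% Pluronic F-68, 1 μM paclitaxel, 30 μg/mL pig microtubules; reactions at room temperature. IC50 from inhibition relative to DMSO.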
(ADP-Glo turns the ADP formed in a reaction into a luminescent signal.)
Take `O=C(Nc1ccc(OCF)c(OCCC(F)(F)F)c1)c1cnc(S(=O)(=O)NCCO)cc1N1CCC2(CC1)CC2` [Compound 469]: the IC50 (as a rule, the concentration that gives 50% inhibition) was at most 100 nM.

Consider `O=C(Nc1ccc(OCF)c(N2CCC3(CC3)C2)c1)c1cnc(S(=O)(=O)NCCO)cc1N1CCC2(CC1)CC2` [Compound 470], for which the half-maximal inhibitory concentration (IC50) is at most 100 nM.

Take `O=C(Nc1ccc(OCF)c(OC2CCC2)c1)c1cnc(S(=O)(=O)NCCO)cc1N1CCC2(CC1)CC2` [Compound 471]: the IC50 was at most 100 nM.

For `CC1(F)CCN(c2cc(NC(=O)c3cnc(S(=O)(=O)NCCO)cc3N3CCC4(CC3)CC4)ccc2OCF)C1` (centres unmarked) [Compound 472], the IC50 is at most 100 nM.

For `O=C(Nc1ccc(OCF)c(N2CCC(F)CC2)c1)c1cnc(S(=O)(=O)NCCO)cc1N1CCC2(CC1)CC2` [Compound 473], the half-maximal inhibitory concentration (IC50) was at most 100 nM.

In the case of `O=C(Nc1ccc(OCF)c(N2CC3CC3C2)c1)c1cnc(S(=O)(=O)NCCO)cc1N1CCC2(CC1)CC2` (centres unmarked) [Compound 474], the concentration for half-maximal inhibition (IC50) was at most 100 nM.

As for `CC(C)(CO)Nc1cc(NC(=O)c2cnc(S(=O)(=O)NCCO)cc2N2CCC3(CC2)CC3)ccc1OCF` [Compound 475], the half-inhibitory concentration (IC50) was at most 100 nM.

For the molecule `O=C(Nc1ccc(OCF)c(N2CCOCC2)c1)c1cnc(S(=O)(=O)NCCO)cc1N1CCC2(CC1)CC2` [Compound 476], the IC50 was at most 100 nM.

On to `C[C@@H](CO)NS(=O)(=O)c1cc(N2CCC3(CC2)CC3)c(C(=O)Nc2ccc(OCF)c(N3CCC(F)(F)CC3)c2)cn1` [Compound 477], for which the half-maximal inhibitory concentration (IC50) was at most 100 nM.

Take `C[C@H](CO)NS(=O)(=O)c1cc(N2CCC3(CC2)CC3)c(C(=O)Nc2ccc(OCF)c(N3CCC(F)(F)CC3)c2)cn1` [Compound 478]: the IC50 is at most 100 nM.

Consider `C[C@@H]1CN(c2cc(NC(=O)c3cnc(S(=O)(=O)N[C@@H](C)CO)cc3N3CCC4(CC3)CC4)ccc2OCF)CCO1` [Compound 479], for which the IC50 was at most 100 nM.

On to `C[C@H](CO)NS(=O)(=O)c1cc(N2CCC3(CC2)CC3)c(C(=O)Nc2ccc(OCF)c(N3CCO[C@H](C)C3)c2)cn1` [Compound 480], for which the IC50 was at most 100 nM.

As to `O=C(Nc1ccc(OCF)c(N2CCC(F)(F)CC2)n1)c1cnc(NS(=O)(=O)CCO)cc1N1CCC2(CC1)CC2` [Compound 481], the IC50 was at most 100 nM.

With `C[C@@H]1CN(c2nc(NC(=O)c3cnc(NS(=O)(=O)CCO)cc3N3CCC4(CC3)CC4)ccc2OCF)CCO1` [Compound 482], the IC50 is at most 100 nM.

For the molecule `C[C@H]1CN(c2nc(NC(=O)c3cnc(NS(=O)(=O)CCO)cc3N3CCC4(CC3)CC4)ccc2OCF)CCO1` [Compound 483], the half-inhibitory concentration (IC50) was at most 100 nM.

As to `O=C(Nc1ccc(OCF)c(N2CC(F)(F)C2)n1)c1cnc(NS(=O)(=O)CCO)cc1N1CCC2(CC1)CC2` [Compound 484], the concentration for half-maximal inhibition (IC50) was at most 100 nM.

As for `O=C(Nc1ccc(OCF)c(OCCC(F)(F)F)n1)c1cnc(NS(=O)(=O)CCO)cc1N1CCC2(CC1)CC2` [Compound 485], the 50% inhibitory concentration (IC50) is at most 100 nM.

As to `O=C(Nc1ccc(OCF)c(N2CCC3(CC3)C2)n1)c1cnc(NS(=O)(=O)CCO)cc1N1CCC2(CC1)CC2` [Compound 486], the 50% inhibitory concentration (IC50) was at most 100 nM.

With `O=C(Nc1ccc(OCF)c(OC2CCC2)n1)c1cnc(NS(=O)(=O)CCO)cc1N1CCC2(CC1)CC2` [Compound 487], the IC50 was at most 100 nM.

In the case of `CC1(F)CCN(c2nc(NC(=O)c3cnc(NS(=O)(=O)CCO)cc3N3CCC4(CC3)CC4)ccc2OCF)C1` (centres unmarked) [Compound 488], the concentration for half-maximal inhibition (IC50) was at most 100 nM.

In the case of `O=C(Nc1ccc(OCF)c(N2CCC(F)CC2)n1)c1cnc(NS(=O)(=O)CCO)cc1N1CCC2(CC1)CC2` [Compound 489], the IC50 is at most 100 nM.

With `O=C(Nc1ccc(OCF)c(N2CC3CC3C2)n1)c1cnc(NS(=O)(=O)CCO)cc1N1CCC2(CC1)CC2` (centres unmarked) [Compound 490], the 50% inhibitory concentration (IC50) is at most 100 nM.

In the case of `CC(C)(CO)Nc1nc(NC(=O)c2cnc(NS(=O)(=O)CCO)cc2N2CCC3(CC2)CC3)ccc1OCF` [Compound 491], the IC50 is at most 100 nM.

In the case of `O=C(Nc1ccc(OCF)c(N2CCOCC2)n1)c1cnc(NS(=O)(=O)CCO)cc1N1CCC2(CC1)CC2` [Compound 492], the 50% inhibitory concentration (IC50) is at most 100 nM.

In the case of `C[C@@H](CO)S(=O)(=O)Nc1cc(N2CCC3(CC2)CC3)c(C(=O)Nc2ccc(OCF)c(N3CCC(F)(F)CC3)n2)cn1` [Compound 493], the 50% inhibitory concentration (IC50) is at most 100 nM.

As to `C[C@H](CO)S(=O)(=O)Nc1cc(N2CCC3(CC2)CC3)c(C(=O)Nc2ccc(OCF)c(N3CCC(F)(F)CC3)n2)cn1` [Compound 494], the concentration for half-maximal inhibition (IC50) was at most 100 nM.

Consider `C[C@@H]1CN(c2nc(NC(=O)c3cnc(NS(=O)(=O)[C@@H](C)CO)cc3N3CCC4(CC3)CC4)ccc2OCF)CCO1` [Compound 495], for which the half-maximal inhibitory concentration (IC50) was at most 100 nM.

Take `C[C@@H]1CN(c2nc(NC(=O)c3cnc(NS(=O)(=O)[C@H](C)CO)cc3N3CCC4(CC3)CC4)ccc2OCF)CCO1` [Compound 496]: the IC50 is at most 100 nM.

Turning to `O=C(Nc1ccc(OCF)c(N2CCC(F)(F)CC2)n1)c1cnc(S(=O)(=O)NCCO)cc1N1CCC2(CC1)CC2` [Compound 497], the IC50 is at most 100 nM.

On to `C[C@@H]1CN(c2nc(NC(=O)c3cnc(S(=O)(=O)NCCO)cc3N3CCC4(CC3)CC4)ccc2OCF)CCO1` [Compound 498], for which the IC50 is at most 100 nM.

In the case of `C[C@H]1CN(c2nc(NC(=O)c3cnc(S(=O)(=O)NCCO)cc3N3CCC4(CC3)CC4)ccc2OCF)CCO1` [Compound 499], the 50% inhibitory concentration (IC50) was at most 100 nM.

Take `O=C(Nc1ccc(OCF)c(N2CC(F)(F)C2)n1)c1cnc(S(=O)(=O)NCCO)cc1N1CCC2(CC1)CC2` [Compound 500]: the half-inhibitory concentration (IC50) was at most 100 nM.

`O=C(Nc1ccc(OCF)c(OCCC(F)(F)F)n1)c1cnc(S(=O)(=O)NCCO)cc1N1CCC2(CC1)CC2` [Compound 501]: the concentration for half-maximal inhibition (IC50) is at most 100 nM.

Consider `O=C(Nc1ccc(OCF)c(N2CCC3(CC3)C2)n1)c1cnc(S(=O)(=O)NCCO)cc1N1CCC2(CC1)CC2` [Compound 502], for which the half-inhibitory concentration (IC50) was at most 100 nM.

As to `O=C(Nc1ccc(OCF)c(OC2CCC2)n1)c1cnc(S(=O)(=O)NCCO)cc1N1CCC2(CC1)CC2` [Compound 503], the IC50 is at most 100 nM.

As for `CC1(F)CCN(c2nc(NC(=O)c3cnc(S(=O)(=O)NCCO)cc3N3CCC4(CC3)CC4)ccc2OCF)C1` (centres unmarked) [Compound 504], the IC50 was at most 100 nM.

In the case of `O=C(Nc1ccc(OCF)c(N2CCC(F)CC2)n1)c1cnc(S(=O)(=O)NCCO)cc1N1CCC2(CC1)CC2` [Compound 505], the IC50 is at most 100 nM.

For the molecule `O=C(Nc1ccc(OCF)c(N2CC3CC3C2)n1)c1cnc(S(=O)(=O)NCCO)cc1N1CCC2(CC1)CC2` (centres unmarked) [Compound 506], the 50% inhibitory concentration (IC50) is at most 100 nM.

Take `CC(C)(CO)Nc1nc(C(=O)Nc2cnc(S(=O)(=O)NCCO)cc2N2CCC3(CC2)CC3)ccc1OCF` [Compound 507]: the half-maximal inhibitory concentration (IC50) was at most 100 nM.

As for `O=C(Nc1ccc(OCF)c(N2CCOCC2)n1)c1cnc(S(=O)(=O)NCCO)cc1N1CCC2(CC1)CC2` [Compound 508], the concentration for half-maximal inhibition (IC50) is at most 100 nM.

Take `C[C@@H](CO)NS(=O)(=O)c1cc(N2CCC3(CC2)CC3)c(C(=O)Nc2ccc(OCF)c(N3CCC(F)(F)CC3)n2)cn1` [Compound 509]: the IC50 is at most 100 nM.

On to `C[C@H](CO)NS(=O)(=O)c1cc(N2CCC3(CC2)CC3)c(C(=O)Nc2ccc(OCF)c(N3CCC(F)(F)CC3)n2)cn1` [Compound 510], for which the IC50 was at most 100 nM.

As to `C[C@@H]1CN(c2nc(NC(=O)c3cnc(S(=O)(=O)N[C@@H](C)CO)cc3N3CCC4(CC3)CC4)ccc2OCF)CCO1` [Compound 511], the IC50 was at most 100 nM.

On to `C[C@H](CO)NS(=O)(=O)c1cc(N2CCC3(CC2)CC3)c(C(=O)Nc2ccc(OCF)c(N3CCO[C@H](C)C3)n2)cn1` [Compound 512], for which the IC50 is at most 100 nM.
